Consider 89 compounds from a flash point compilation (Sun et al. 2020).

Structures are written as SMILES.

Assay in series [1]: not given
The source holds these as a separate data set.

Assay in series [2]: not given
The source holds these as a separate data set.

Assay in series [3]: not given
The source holds these as a separate data set.

Assay in series [4]: not given
This is another data set of the same source.

Assay in series [5]: not given
This is another data set of the same source.

Take `CC(C)c1cccc(C(C)C)c1` [1,3-diisopropylbenzene]: the flash point stood at 76.8 °C. The flash point in series [1] stood at 76 °C. As for `CC(C)(C)CCCl` [1-Chloro-3,3-dimethylbutane], the flash point in series [2] is 19.1 °C. `CC(C)CCCl` [1-Chloro-3-methylbutane]: in series [2], the flash point stood at 16.1 °C. Same read-out and setting: the same measure for `CCC(C)CCCCCl` (configuration not stated) [1-Chloro-5-methylheptane]: 52.6 °C. `CCC(C)c1ccc(C)cc1C` (configuration not stated) [1-sec -butyl-2,4-dimethylbenzene] returned a flash point of 81.4 °C. In turn, `CCC(C)c1cccc(C)c1` (configuration not stated) [1-sec -butyl-3-methylbenzene] returned a flash point of 63.1 °C. With `CCC(C)c1ccc(C)cc1` (configuration not stated) [1-sec -butyl-4-methylbenzene], the flash point amounted to 65 °C. On the same count and under the same terms, next, `Cc1cccc(C(C)(C)C)c1` [1-tert -butyl-3-methylbenzene]: 60.6 °C; `CCc1ccc(C(C)(C)C)cc1` [1-tert -butyl-4-ethylbenzene]: 76.0 °C.

For the compound `CC(C)(C)C(C)(C)C` [2,2,3,3-Tetramethylbutane], the flash point in series [3] is -0 °C. On the same count and under the same terms, the same measure for `CC(C)C(C)C(C)(C)C` (configuration not stated) [2,2,3,4-Tetramethylpentane]: 11 °C. Same read-out and setting: next, `CC(C)C(C)(C)C` [2,2,3-Trimethylbutane]: -26 °C; `CCCC(C)C(C)(C)C` (configuration not stated) [2,2,3-Trimethylhexane]: 15 °C.

`CC(C)(C)CC(C)(C)C` [2,2,4,4-Tetramethylpentane]: in series [3], the flash point came to 3 °C. On the same count and under the same terms, next, `CC(C)(C)CCC(C)(C)C` [2,2,5,5-Tetramethylhexane]: 31 °C; `CC(C)CCC(C)(C)C` [2,2,5-Trimethylhexane]: 13 °C; `CCC(C)C(C)(C)C(C)C` (configuration not stated) [2,3,3,4-Tetramethylhexane]: 31 °C. Compound `CCC(C)(C)C(C)C` [2,3,3-Trimethylpentane] gave a flash point in series [3] of -0 °C. `CCC(C)C(C)C(C)C` (configuration not stated) [2,3,4-Trimethylhexane]: the flash point in series [3] worked out at 15 °C.

`CCC(C)CC(C)C(C)C` (configuration not stated) [2,3,5-Trimethylheptane] gave a flash point in series [3] of 31 °C.

The compound `CC(C)CC(C)C(C)C` (configuration not stated) [2,3,5-Trimethylhexane] returned a flash point in series [3] of 15 °C.

In series [3], `CCC(C)(CC)C(C)C` [2,3-Dimethyl-3-ethylpentane] had a flash point of 15 °C. Still for that read-out and setting: the same measure for `CCCC(C)C(C)C` (configuration not stated) [2,3-Dimethylhexane]: 10 °C; for `CCC(C)C(C)C` (configuration not stated) [2,3-Dimethylpentane]: -15 °C.

Take `CCC(C)C(C)CC(C)C` (configuration not stated) [2,4,5-Trimethylheptane]: the flash point in series [3] came out at 31 °C. Still for that read-out and setting: next, `CCC(C)CCCC(C)C` (configuration not stated) [2,6-Dimethyloctane]: 41 °C; `CC(C)C` [2-Methylpropane]: -87 °C.

For `CCc1cc(C)ccc1C` [2-ethyl-p -xylene], the flash point stood at 56.1 °C. On to `CCC(C)C(C)(C)CC` (configuration not stated) [3,3,4-Trimethylhexane], for which the flash point in series [3] came to 15 °C. In turn, `CCC(C)(C)CC` [3,3-Dimethylpentane] returned a flash point in series [3] of -19 °C.

With `CCC(C)C(C)C(C)CC` (configuration not stated) [3,4,5-Trimethylheptane], the flash point in series [3] came out at 31 °C. `CCCC(C)C(C)CC` (configuration not stated) [3,4-Dimethylheptane] showed a flash point in series [3] of 15 °C. In series [4], `C=CCNCCC[Si](OC)(OC)OC` [3-(N-ALLYLAMINO)PROPYLTRIMETHOXYSILANE] gave a flash point of 88.00 °C. On the same count and under the same terms, next, `CCO[Si](CCCN)(OCC)OCC` [3-AMINOPROPYLTRIETHOXYSILANE]: 104.00 °C. For `CO[Si](CCCN)(OC)OC` [3-AMINOPROPYLTRIMETHOXYSILANE], the flash point in series [4] worked out at 83.00 °C. As for `C[Si](C)(C)CCCN` [3-AMINOPROPYLTRIMETHYLSILANE], the flash point in series [4] was 59.00 °C.

Take `COCCOCCO[Si](CCCN)(OCCOCCOC)OCCOCCOC` [3-AMINOPROPYLTRIS(METHOXYETHOXYETHOXY)SILANE]: the flash point in series [4] was 68.00 °C. Regarding `CCCC(CC)C(C)(C)C` (configuration not stated) [3-Ethyl-2,2-dimethylhexane], the flash point in series [3] was found to be 38 °C.

`CCC(C)(C(C)C)C(C)C` [3-Ethyl-2,3,4-trimethylpentane] came in with a flash point in series [3] of 31 °C. As to `CCC(CC)CC` [3-Ethylpentane], the flash point in series [3] is -18 °C. In series [3], `CCCC(CC)C(C)CC` (configuration not stated) [4-Ethyl-3-methylheptane] had a flash point of 41 °C. The compound `CCCCC(CC)CCC` (configuration not stated) [4-Ethyloctane] had a flash point in series [3] of 41 °C. As to `CCc1ccc(C)c(C)c1` [4-ethyl-o -xylene], the flash point amounted to 58.1 °C.

`Cc1ccc(C(C)(C)C)cc1` [4-tert -butyltoluene] had a flash point of 54.1 °C. As to `CC(C)C(C)c1ccccc1` (configuration not stated) [(1,2-dimethylpropyl)benzene], the flash point was 57.0 °C. In turn, `CCCC(CC)c1ccccc1` (configuration not stated) [(1-ethylbutyl)benzene] showed a flash point of 74.2 °C.

Take `CCCCCCC(C)c1ccccc1` (configuration not stated) [(1-methylheptyl)benzene]: the flash point was 100.1 °C. The same measure, in the same setting: the same measure for `CCCCCC(C)c1ccccc1` (configuration not stated) [(1-methylhexyl)benzene]: 87.2 °C. For the compound `C=CC(=O)OCCC[Si](C)(C)OC` [(3-ACRYLOXYPROPYL)DIMETHYLMETHOXYSILANE], the flash point in series [4] was determined as 85.00 °C.

As for `C=CC(=O)OCCC[Si](OC)(OC)OC` [(3-ACRYLOXYPROPYL)TRIMETHOXYSILANE], the flash point in series [4] turned out to be 123.00 °C.

In turn, `C=CC(=O)OCCC[Si](O[Si](C)(C)C)(O[Si](C)(C)C)O[Si](C)(C)C` [(3-ACRYLOXYPROPYL)TRIS(TRIMETHYLSILOXY)SILANE] showed a flash point in series [4] of 93.00 °C. `C[Si](C)(C)CN=[N+]=[N-]` [(AZIDOMETHYL)TRIMETHYLSILANE] returned a flash point in series [4] of 6.00 °C.

In turn, `CC(=O)OCC[Si](C)(C)Cl` [ACETOXYETHYLDIMETHYLCHLOROSILANE] came in with a flash point in series [4] of 63.00 °C. Still for that read-out and setting: next, `CC(=O)OCC[Si](C)(Cl)Cl` [ACETOXYETHYLMETHYLDICHLOROSILANE]: 65.00 °C; `CCO[Si](CCOC(C)=O)(OCC)OCC` [ACETOXYETHYLTRIETHOXYSILANE]: 99.00 °C; `CC(=O)O[Si](C)(C)C` [ACETOXYTRIMETHYLSILANE]: 4.00 °C. The same measure, in the same setting: the same measure for `CC(=O)[Si](C)(C)C` [ACETYLTRIMETHYLSILANE]: 8.00 °C; for `C=CC(=O)OC[Si](OC)(OC)OC` [ACRYLOXYMETHYLTRIMETHOXYSILANE]: 62.00 °C.

On to `C=CC[Si](Cl)(Cl)CCCCl` [ALLYL(3-CHLOROPROPYL)DICHLOROSILANE], for which the flash point in series [4] was found to be 76.00 °C.

In series [4], `C=CC[Si](C)(C)c1ccc(OC)cc1` [ALLYL(4-METHOXYPHENYL)DIMETHYLSILANE] yielded a flash point of 102.00 °C.

`C=CC[Si](C)(C)CCl` [ALLYL(CHLOROMETHYL)DIMETHYLSILANE] showed a flash point in series [4] of 27.00 °C. The same measure, in the same setting: the same measure for `C=CCN[Si](C)(C)C` [ALLYLAMINOTRIMETHYLSILANE]: 10.00 °C; for `C=CC[SiH](Cl)Cl` [ALLYLDICHLOROSILANE]: -4.00 °C. In turn, `C=CCO[Si](C)(C)C(C)(C)C` [ALLYLOXY-t-BUTYLDIMETHYLSILANE] returned a flash point in series [4] of 32.00 °C. The same measure, in the same setting: next, `C=CC[Si](Cl)(Cl)c1ccccc1` [ALLYLPHENYLDICHLOROSILANE]: 76.00 °C.

`C=CC[Si](Cl)(Cl)Cl` [ALLYLTRICHLOROSILANE]: in series [4], the flash point was 31.00 °C. In series [4], `C=CC[Si](OCC)(OCC)OCC` [ALLYLTRIETHOXYSILANE] showed a flash point of 47.00 °C. Consider `C=CC[Si](C(C)C)(C(C)C)C(C)C` [ALLYLTRIISOPROPYLSILANE], for which the flash point in series [4] was 76.00 °C. Still for that read-out and setting: the same measure for `C=CC[Si](C)(C)C` [ALLYLTRIMETHYLSILANE]: 7.00 °C. Still for that read-out and setting: next, `C[Si](C)(Cl)Cc1ccccc1` [BENZYLDIMETHYLCHLOROSILANE]: 73.00 °C. Same read-out and setting: next, `CCO[Si](CCCNCCN)(OCC)OCC` [N-(2-AMINOETHYL)-3-AMINOPROPYLTRIETHOXYSILANE]: 148.00 °C; `CO[Si](CCCNCCN)(OC)OC` [N-(2-AMINOETHYL)-3-AMINOPROPYLTRIMETHOXYSILANE]: 150.00 °C. Compound `COCN(Cc1ccccc1)C[Si](C)(C)C` [N-BENZYL-N-METHOXYMETHYL-N-(TRIMETHYLSILYLMETHYL)AMINE] registered a flash point in series [4] of 66.00 °C. As to `CCCCCCCCCCCCCC` [Tetradecane], the flash point in series [3] was 99 °C; in series [5], 109.2 °C. Regarding `CC(C)c1ccccc1` [cumene], the flash point worked out at 31.1 °C. On to `CC(C)CCc1ccccc1` [isopentylbenzene], for which the flash point is 62.1 °C.

`Cc1cccc(C(C)C)c1` [m -cymene] gave a flash point of 47.1 °C. In the case of `CO[Si](OC)(OC)c1cccc(N)c1` [m-AMINOPHENYLTRIMETHOXYSILANE], in series [4], the flash point stood at 180.00 °C.

`Cc1ccccc1C(C)C` [o -cymene] displayed a flash point of 50.1 °C.

Consider `CCc1ccccc1CC` [o -diethylbenzene], for which the flash point turned out to be 55.1 °C. The compound `CCc1ccccc1C` [o -ethyltoluene] yielded a flash point of 39.1 °C. Consider `CCCc1ccccc1C` [o -propyltoluene], for which the flash point was 57.8 °C. Turning to `CCc1ccc(CC)cc1` [p -diethylbenzene], the flash point is 55.1 °C. As for `CCc1ccc(C)cc1` [p -ethyltoluene], the flash point worked out at 36.1 °C. Same read-out and setting: next, `Cc1ccc(C)cc1` [p -xylene]: 25.1 °C. For the compound `CCCc1ccccc1` [propylbenzene], the flash point was 42.1 °C. In series [1], this compound had a flash point of 47 °C. `CCC(C)c1ccccc1` (configuration not stated) [sec -butylbenzene] yielded a flash point of 52 °C. On to `CCCC(C)c1ccccc1` (configuration not stated) [sec -pentylbenzene], for which the flash point worked out at 60.7 °C. Same read-out and setting: the same measure for `Cc1ccccc1` [toluene]: 7.1 °C.
